Experimental findings from paper PMC11126801 (The Journal of Biological Chemistry, 2024) are described below.

The target of data set [1] is T1, HCN3 (Homo sapiens, UniProt Q9P1Z3).
T1 sequence (Q9P1Z3 1-774): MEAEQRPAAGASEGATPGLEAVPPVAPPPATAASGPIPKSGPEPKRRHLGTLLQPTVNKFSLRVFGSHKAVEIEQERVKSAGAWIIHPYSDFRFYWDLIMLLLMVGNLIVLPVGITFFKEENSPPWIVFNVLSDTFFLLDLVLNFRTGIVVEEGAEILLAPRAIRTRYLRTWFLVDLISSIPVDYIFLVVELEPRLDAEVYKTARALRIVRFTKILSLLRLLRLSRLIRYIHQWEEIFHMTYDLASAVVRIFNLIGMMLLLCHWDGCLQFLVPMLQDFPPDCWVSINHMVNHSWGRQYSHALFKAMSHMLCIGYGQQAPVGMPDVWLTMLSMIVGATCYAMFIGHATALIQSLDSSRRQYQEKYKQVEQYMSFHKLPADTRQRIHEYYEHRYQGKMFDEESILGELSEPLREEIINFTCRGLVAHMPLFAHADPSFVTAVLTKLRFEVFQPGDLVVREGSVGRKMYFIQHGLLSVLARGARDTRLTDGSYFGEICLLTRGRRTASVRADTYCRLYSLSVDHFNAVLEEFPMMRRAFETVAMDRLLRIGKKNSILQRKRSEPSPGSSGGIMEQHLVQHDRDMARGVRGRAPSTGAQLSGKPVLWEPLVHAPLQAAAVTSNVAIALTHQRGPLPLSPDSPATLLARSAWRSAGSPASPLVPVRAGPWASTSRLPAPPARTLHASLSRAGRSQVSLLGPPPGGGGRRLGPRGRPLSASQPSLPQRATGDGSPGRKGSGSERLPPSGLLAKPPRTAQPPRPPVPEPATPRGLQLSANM
Kind of data set: whole-cell patch clamp of HCN3 currents in transfected HeLa cells. Format: cell-based. On the set-up: human HCN3 (WT) expressed in HeLa cells. On the technique in general: In patch-clamp work, channel activity is measured electrically.

Data set [2] addresses T1, HCN3. As to the kind of experiment: cryo-EM structure of the apo channel ([…] Å) with CHS density; IC50 by whole-cell patch clamp. Format: cell-based.
Data set [3] concerns the molecule itself. As to the kind of experiment: cryo-EM structure; single-particle cryo-EM of MBP-HCN3 in 0.1% digitonin, 300 mM KCl, 2 mM DTT, 20 mM Tris pH 8.0; ligand-free sample and sample with 5 mM cAMP; final refinement in C4 symmetry.

`CC(C)CCC[C@@H](C)[C@H]1CC[C@H]2[C@@H]3CC=C4C[C@@H](O)CC[C@]4(C)[C@H]3CC[C@]12C` [cholesterol]: it took 480 µM to reach half-maximal inhibition against HCN3 [1] (IC50).

For the molecule `CC(C)CCC[C@@H](C)[C@H]1CC[C@H]2[C@@H]3CC=C4C[C@@H](OC(=O)CCC(=O)O)CC[C@]4(C)[C@H]3CC[C@]12C` [cholesteryl hemisuccinate], on HCN3 [2], the IC50 is 1450 µM.

B1: full-length wild-type human HCN3 with its N terminus fused to maltose-binding protein (MBP) (natural protein, UniProt Q9P1Z3 1-774, looked up)
chain: T1 sequence (Q9P1Z3 1-774)
notes: the tag was not cleaved for the structures; Modelled residues: 50-151, 156-191, 210-476, 484-543 (apo); also 477-483 with cAMP; also called HCN3 channel; apo-HCN3; source: HEK293S cells, BacMam transduction, purified (MBP beads, Superose 6 SEC, digitonin); not shown: MBP, N-terminal, kept
B1: in data set [3], the “stoichiometry N” value was determined as 4.

As a reminder, the IC50 is the concentration that gives 50% inhibition. By stoichiometry N is commonly meant the number of molecules, sites or subunits per partner or assembly.
